Several values for one entry are separate records, joined by “and”; a condition that tells them apart may be missing. Equal entries are not always repeated. Where two headings read alike, the source gives them in different places.
Tests used:
[1] = reference substances with known distribution coefficients; cited from earlier work
[2] = Plasma protein binding by equilibrium dialysis; assay type: in vitro ADME
Experimental: The binding of test substances to plasma proteins is determined by equilibrium dialysis by means of the Ht-dialysis apparatus (96-well) made of Teflon and a semipermeable membrane (regenerated cellulose, MWCO 12-14K). This separates 150 μl each of a plasma side and a buffer side (50 mM phosphate buffer). The test substance is added in 2 concentrations (usually 3 and 0.3 μM) to the plasma side and binds to plasma proteins. The unbound fraction of the test substance passes through the membrane and is distributed on either side until equilibrium is established (after approx. 6-8 h at 37° C.). The substance concentration on the buffer side and the plasma side is determined by LC-MS analysis. For this, both sides are brought by dilution with buffer or plasma to the same matrix (10% plasma) and then precipitated with methanol. The free (unbound) fraction (fu) is calculated from the quotient of the buffer and plasma concentration. Stability tests and recovery tests are run concurrently as controls. In addition, the substance in buffer is dialysed against buffer, to check the nonspecific binding to apparatus and membrane and establishment of equilibrium. Because during incubation the osmotic pressure of the plasma proteins leads to dilution of the plasma (volume shift), this possible error is determined by weighing blank plasma samples and is included in the calculation of fu. Establishment of equilibrium and plasma stability should have a value not lower than 80% and the recovery should be at least 30%. A free fraction of <1% is regarded as high, between 1 and 10% as moderate and >10% as low plasma protein binding.

[3] = Membrane affinity logMA (MA-Transil); assay type: physicochemical; settings: buffer pH 7.4
Experimental: Assays for Determining Membrane Affinity logMA and Protein Binding to Human Serum Albumin (HSA):
Determination of membrane affinity and protein binding to human serum albumin (HSA) was carried out via Transil technology (literature: A. Loidl-Stahlhofen, A. Eckert, T. Hartmann, M. Schöttner J Pharm Sci 90, 599-606 (2001)). Transil® (commercially available from Sovicell in Leipzig, Germany) are glass beads (diameter 10-12 μm) coated with a double-layer membrane of phosphatidylcholine (MA-Transil) or covalently attached human serum albumin (HSA-Transil).
To determine the logMA and the protein binding constant to HSA, the commercially available TRANSIL Intestinal Absorption & HSA Binding Combined Assay Kit was used. This is a 96-well microtitre plate (96 well-MTP) which is filled with Transil and can be used to determine MA-Transil and HSA-Transil binding of in each case eight active compounds. For each active compound, the Transil plate provides a row of 12 wells. Two wells serve as reference and are only filled with buffer pH 7.4. Five further wells contain MA-Transil in various increasing concentrations, the five remaining wells contain HSA-Transil in various increasing concentrations.
To determine binding of an active compound to Transil, the supernatant of the wells with Transil was quantified against the reference solution without Transil via HPLC-MS coupling (HPLC-MS=high performance liquid chromatography/mass spectrometry).
This is how the individual steps of the assay were carried out:
From the internal substance store, the active compounds were delivered in a 96-well MTP. This plate is referred to as mother plate. Each well contained 30 μl of a 10 mmol solution of active compound in DMSO (dimethyl sulphoxide). Two wells at the start (well A1) and at the end of the plate (well H12) were filled with 30 μl of a 10 mmol solution of warfarin in DMSO. Warfarin, whose membrane affinity and binding to HSA is known, serves to check whether the measurement is correct. The mother plate was used to prepare a daughter plate with a 1 to 4000 dilution with a mixture of buffer pH 7.4 and DMSO in a ratio of 1+1. The active compound concentration of each well was 2.5 μmol/liter, the volume of each well was 400 μl.
Using a Hamilton pipetting robot Microlab STAR, the 96 active compounds from the daughter plate were divided onto 12 Transil plates in total. From each well of the daughter plate, 12 times 20 μl were removed. The concentration of each well of the Transil plate was 0.25 μmol/liter, which corresponds to a dilution of 1 to 10. The DMSO content was 5%.
The filled Transil plates were each resuspended for two minutes, then allowed to stand at room temperature for at least two minutes and then centrifuged at 600 rotations per minute for five minutes. The pipetting robot was then used to remove 20 μl of supernatant from each well of the Transil plate and to transfer these to a separate microtitre plate. Here, the supernatants of in each case four Transil plates were pooled in a microtitre plate, so that at the end there were three pooled microtitre plates with in each case 80 μl of solution and an active compound concentration of 62.5 nM per well.
Prior to quantification of the active compounds by HPLC-MS, an optimization has to be carried out for each active compound where by way of a single injection daughter ion and optimum electrical voltages are determined. To this end, the pipetting robot prepared a dilution of the mother plate of 1 to 10 000 000 in an acetonitrile/water mixture in a ratio of 8+2 in a separate microtitre plate. This microtitre plate was measured by HPLC-MS using the software Discovery Quant Optimize from AB Sciex. The three pooled microtitre plates were measured by HPLC-MS using the software Discovery Quant Analyze from AB Sciex. […]

[4] = test system: human ACC1; experiment: Human ACC1 enzyme assay (ADP-Glo); assay type: biochemical; settings: for Ratio IC50s ACC2/ACC1 (respective measurement): pairwise, same dilution series
Experimental: (§1) Typical concentrations were in the range of 1.75 μl.

[5] = biological target: human serum albumin (HSA) (Homo sapiens (Human), UniProt P02768); experiment: Protein binding to human serum albumin (HSA-Transil); settings: buffer pH 7.4
human serum albumin (HSA), sequence (P02768 25-609): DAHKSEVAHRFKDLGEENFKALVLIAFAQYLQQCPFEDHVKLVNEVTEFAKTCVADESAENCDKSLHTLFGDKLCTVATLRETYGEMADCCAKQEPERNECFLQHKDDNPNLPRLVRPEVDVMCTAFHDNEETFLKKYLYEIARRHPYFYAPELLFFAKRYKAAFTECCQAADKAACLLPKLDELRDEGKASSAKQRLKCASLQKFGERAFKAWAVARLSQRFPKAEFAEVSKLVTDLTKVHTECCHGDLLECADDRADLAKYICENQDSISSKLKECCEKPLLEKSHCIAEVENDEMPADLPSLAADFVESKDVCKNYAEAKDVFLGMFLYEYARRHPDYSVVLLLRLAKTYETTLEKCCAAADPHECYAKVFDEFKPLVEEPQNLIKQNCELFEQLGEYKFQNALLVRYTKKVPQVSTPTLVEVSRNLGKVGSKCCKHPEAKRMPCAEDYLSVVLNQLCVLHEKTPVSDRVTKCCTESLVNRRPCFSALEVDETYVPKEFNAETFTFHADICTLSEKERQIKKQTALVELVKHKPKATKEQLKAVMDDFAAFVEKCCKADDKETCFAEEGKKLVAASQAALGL
Experimental: Assays for Determining Membrane Affinity logMA and Protein Binding to Human Serum Albumin (HSA): Determination of membrane affinity and protein binding to human serum albumin (HSA) was carried out via Transil technology (literature: A. Loidl-Stahlhofen, A. Eckert, T. Hartmann, M. […] Pharm Sci 90, 599-606 (2001)). Transil® (commercially available from Sovicell in Leipzig, Germany) are glass beads (diameter 10-12 μm) coated with a double-layer membrane of phosphatidylcholine (MA-Transil) or covalently attached human serum albumin (HSA-Transil). To determine the logMA and the protein binding constant to HSA, the commercially available TRANSIL Intestinal Absorption & HSA Binding Combined Assay Kit was used. This is a 96-well microtitre plate (96 well-MTP) which is filled with Transil and can be used to determine MA-Transil and HSA-Transil binding of in each case eight active compounds. […] Two wells serve as reference and are only filled with buffer pH 7.4. Five further wells contain MA-Transil in various increasing concentrations, the five remaining wells contain HSA-Transil in various increasing concentrations. To determine binding of an active compound to Transil, the supernatant of the wells with Transil was quantified against the reference solution without Transil via HPLC-MS coupling (HPLC-MS=high performance liquid chromatography/mass spectrometry). This is how the individual steps of the assay were carried out: From the internal substance store, the active compounds were delivered in a 96-well MTP. This plate is referred to as mother plate. […] Warfarin, whose membrane affinity and binding to HSA is known, serves to check whether the measurement is correct. […] Using a Hamilton pipetting robot Microlab STAR, the 96 active compounds from the daughter plate were divided onto 12 Transil plates in total. From each well of the daughter plate, 12 times 20 μl were removed. The concentration of each well of the Transil plate was 0.25 μmol/liter, which corresponds to a dilution of 1 to 10. […] The filled Transil plates were each resuspended for two minutes, then allowed to stand at room temperature for at least two minutes and then centrifuged at 600 rotations per minute for five minutes. The pipetting robot was then used to remove 20 μl of supernatant from each well of the Transil plate and to transfer these to a separate microtitre plate. […] Prior to quantification of the active compounds by HPLC-MS, an optimization has to be carried out for each active compound where by way of a single injection daughter ion and optimum electrical voltages are determined. […] This microtitre plate was measured by HPLC-MS using the software Discovery Quant Optimize from AB Sciex. The three pooled microtitre plates were measured by HPLC-MS using the software Discovery Quant Analyze from AB Sciex. • Sciex Triple Quad 5500 mass spectrometer (from AB Sciex) • PAL Autosampler DLW Option Software: Analyst 1.4 (from AB Sciex) • Discovery Quant Optimize (from AB Sciex) • Discovery Quant Analyze (from AB Sciex) Optimization: […] Column: Poroshell 120 SB-C18 2.7 μm 3×30 mm Injection volume: 2 μl Flow rate: 1 ml/min: […] Evaluation of the HPLC peaks was carried out using Discovery Quant Analyze. The results (logMA and binding constant to HSA Kd) were calculated using an Excel workbook provided by Sovicell.

[6] = biological target: human ACC1 (Homo sapiens, UniProt Q13085); experiment: Human ACC1 enzyme assay (ADP-Glo); assay type: biochemical; settings: individual measurement (measurement no./preparation no. in table); read-out: ACC 1 IC50
Experimental: as §1

[7] = human plasma, read-out: fu [%] (human)
[8] = mouse plasma, read-out: fu [%] (mouse)

Row | SMILES | log P [1] | fraction unbound [2, 7] | fraction unbound [2, 8] | logMA [3] | Selectivity ACC1 vs. ACC2 (mean of the individual measurements ± standard deviation) [4] | Ratio IC50s ACC2/ACC1 (respective measurement) [4] | Kd [5] [µM] | IC50 [6]
1 | COC(=O)c1ccccc1 [methyl benzoate] | 2.1 | – | – | – | – | – | – | –
2 | Cc1ccc(-c2ccc(Cl)c(F)c2)cc1C1=C(O)[C@]2(CC[C@H](C(F)(F)F)CC2)NC1=O [V.2-b, (5s,8s)-3-(4′-Chloro-3′-fluoro-4-methylbiphenyl-3-yl)-4-hydroxy-8-(trifluoromethyl)-1-azaspiro[4.5]dec-3-en-2-one] | – | 0.0005 | 0.019 | 2.55 | 9.4 ± 0.8 | 8.6 and 10.3 | – | –
3 | Clc1ccc(C(c2ccc(Cl)cc2)C(Cl)(Cl)Cl)cc1 [DDT] | 6.2 | – | – | – | – | – | – | –
4 | Cc1ccc(-c2ccc(Cl)cc2)cc1C1=C(O)[C@]2(CC[C@H](C(F)(F)F)CC2)NC1=O [V.1-b, (5s,8s)-3-(4′-Chloro-4-methylbiphenyl-3-yl)-4-hydroxy-8-(trifluoromethyl)-1-azaspiro[4.5]dec-3-en-2-one] | – | 0.0007 | 0.0241 | 2.38 | 9.8 ± 1.4 | 11.2 and 8.4 | 3.07 | 0.109 µM and 0.111 µM
5 | c1ccc(-c2cccc(-c3ccccc3)n2)cc1 [2,6-diphenylpyridine] | 4.9 | – | – | – | – | – | – | –
